Laboratory results: US20210386367A1, “DEVICES AND SYSTEMS FOR GASTROINTESTINAL MICROBIOME DETECTION AND MANIPULATION” (Progenity, Inc., priority 2018, published 2021)
Converted amounts (≈) assume the structure as drawn. Like-named read-outs stand apart in the source and are kept apart here.

Columns and labels:
Assay type in all cases: cell-based
[1] = tested on: Streptococcus spp. clinical isolates; assay: MIC distribution against clinical isolates; conditions: 54 Streptococcus spp. isolates
Excerpt: (n=19 S. pyogenes, n=20 S. agalactiae and n=20 Viridans group Streptococcus) clinical isolates (μg/mL).
(§1) As used herein, “minimum inhibitory concentration” or “MIC” refers to the lowest concentration of an antimicrobial agent, for example, an antimicrobial agent as described herein, required to inhibit the growth of an organism. […] “MIC90” represents the MIC value at which ≥90% of the strains within a test population are inhibited; the 90th percentile.
(§2) Many susceptibility testing methods are known in the art and can be used as described herein (see, e.g., Jorgensen and Ferraro (2009) Clinical Infectious Diseases 49:1749-1755; and Maurer et al. (2017) Infectious Disease Reports 9:6839; the entire contents of each of the foregoing are incorporated herein by reference). For example, antimicrobial susceptibility can be determined using conventional culture based methods such as the broth or agar dilution test. In these dilution tests, the bacterial isolate of interest is inoculated onto different media that include serial dilutions of an antimicrobial agent, and incubated under appropriate conditions (e.g., overnight at 37° C.) to allow for growth to occur. Following the incubation period, the media is examined to determine bacterial growth. The lowest concentration of antibiotic that prevents growth represents the minimal inhibitory concentration (MIC). Broth dilution tests can be miniaturized and mechanized allowing for reproducibility and high throughput.

[2] = tested on: Viridans group Streptococci clinical isolates; assay: MIC distribution against clinical isolates; conditions: 15 Viridans group Streptococci isolates
Excerpt: as §1, §2

Enterococcus faecalis = assay: Broth microdilution MIC, 50 clinical isolates
Summary of the method: (§3)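 Medium: cation-adjusted MHB, plus 3% lysed horse blood for streptococci, which were incubated with CO2 planchets. Final inoculum approx. 5×10^5 CFU/mL; serial two-fold drug dilutions per CLSI.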

Staphylococcus aureus = assay: Broth microdilution MIC, 50 clinical isolates (28 MRSA)
Summary of the method: as §3

Streptococcus spp. = assay: Broth microdilution MIC, 54 clinical isolates
Procedure: (§4) Minimal inhibitory concentration (MIC) values were determined by broth microdilution or agar dilution in accordance with guidelines from the Clinical and Laboratory Standards Institute (CLSI; (1) “Methods for Dilution Antimicrobial Susceptibility Tests for Bacteria That Grow Aerobically; Approved Standard; 11th ed.” CLSI standard M07-A11, 2018; (2) “Performance Standards for Antimicrobial Susceptibility Testing; Twenty-Eighth Informational Supplement,” CLSI document M100-S28, 2018; and (3) “Methods for Antimicrobial Susceptibility Testing of Anaerobic Bacteria; Approved Standard—Eighth Edition,” CLSI document M11-A8, 2012).
(§5) Tested aerobically by broth microdilution: • Escherichia coli, n=50 • Klebsiella spp., n=50 • Pseudomonas aeruginosa, n=50 • Streptococcus spp., n=50 • Staphylococcus aureus, n=50 • Enterococcus faecalis, n=50 • Enterobacter aerogenes, n=50 • Proteus mirabilis, n=50
(§6) Broth microdilution testing of aerobic bacteria was conducted in cation-adjusted Mueller Hinton broth (MHBII). For testing streptococci, lysed horse blood (LHB) was added to MHBII broth at a final concentration of 3%. Where LHB was used, it was added after filtering.
(§7) Broth microdilution susceptibility testing in 96-well microplates was conducted in accordance with CLSI methods (1) and (2). Automated liquid handlers were used to conduct serial dilutions and liquid transfers, including the Multidrop 384 (Labsystems, Helsinki, Finland), Biomek 2000, and the Biomek FX (Beckman Coulter, Fullerton, Calif.). All wells in columns 2 through 12 of a standard 96-well microdilution plate (Costar 3795) were filled with 150 μL of the appropriate diluent. Then, 300 μL of the test agents were added to the wells of column 1 of the plates at 100× the highest final concentration to be tested. Serial two-fold dilutions were made across the rows through column 11 using the Biomek 2000. The wells of column 12 contained no drug and served as the growth control wells. This plate served as the “mother plate” from which MIC assay plates or “daughter plates” were made.
(§8) The daughter plates were loaded with 190 μL per well of the appropriate medium using the Multidrop 384. The daughter plates were created using the Biomek FX which transferred 2 μL of drug solution from each well of a mother plate to each corresponding well of the daughter plate in a single step. A standardized inoculum of each test organism was prepared per CLSI methods (1) to equal a 0.5 McFarland standard, followed by a dilution of 1:20 for aerobes and 1:10 for anaerobes. The plates were then inoculated with 10 μL of the diluted inoculum using the Biomek 2000 from low to high drug concentration, resulting in a final concentration of approximately 5×10^5 CFU/mL per well. An un-inoculated plate was incubated in parallel for each medium for the purpose of assessing solubility of the drug in the test media.
(§9) Inoculated plates were stacked 3 or 4 high, covered with a sterile lid on the top plate, placed into boxes with CO2 planchets (streptococci) or plastic bags (all other isolates). Plates were incubated at 35° C. for 16-24 hr in ambient air for aerobes or for 42-48 hr in the anaerobic environment of the Bactron II anaerobe chamber (Sheldon Manufacturing Co.; Cornelius, Oreg.). Following incubation, the microplates were removed from the incubator and viewed from the bottom using a plate viewer. The MIC values were read and recorded as the lowest concentration of drug that inhibited visible growth of the organism as per CLSI methods (1) and (2).

Streptococcus pyogenes = assay: Broth microdilution MIC, 19 clinical isolates
Procedure: as §4, §5, §6, §7, §8, §9

Streptococcus agalactiae = assay: Broth microdilution MIC, 20 clinical isolates; conditions: Streptococcus agalactiae
Procedure: as §4, §5, §6, §7, §8, §9

[3] = tested on: Viridans group Streptococcus; assay: Broth microdilution MIC, 15 clinical isolates
Procedure: as §4, §5, §6, §7, §8, §9

[4] = 54 Streptococcus spp. clinical isolates
[5] = 15 Viridans group Streptococci clinical isolates

CO/N=C(\C(=O)N[C@@H]1C(=O)N2C(C(=O)O)=C(CSc3nc(=O)c(=O)[nH]n3C)CS[C@H]12)c1csc(N)n1 [ceftriaxone]
Cumulative percentage of isolates inhibited at MIC ([1]; MIC 0.008 μg/mL): 1.9%
Number of test isolates at MIC ([1]; MIC 0.008 μg/mL): 1
Cumulative percentage of isolates inhibited at MIC ([1]; MIC 0.015 μg/mL): 35.2%
Number of test isolates at MIC ([1]; MIC 0.015 μg/mL): 18
Cumulative percentage of isolates inhibited at MIC ([1]; MIC 0.03 μg/mL): 51.9%
Number of test isolates at MIC ([1]; MIC 0.03 μg/mL): 9
Cumulative percentage of isolates inhibited at MIC ([1]; MIC 0.06 μg/mL): 87.0%
Number of test isolates at MIC ([1]; MIC 0.06 μg/mL): 19
Cumulative percentage of isolates inhibited at MIC ([1]; MIC 0.5 μg/mL): 98.1%
Number of test isolates at MIC ([1]; MIC 0.5 μg/mL): 1
Cumulative percentage of isolates inhibited at MIC ([1]; MIC 1 μg/mL): 100.0%
Number of test isolates at MIC ([1]; MIC 1 μg/mL): 1
Cumulative percentage of isolates inhibited at MIC ([2]; MIC 0.008 μg/mL): 6.7%
Number of test isolates at MIC ([2]; MIC 0.008 μg/mL): 1
Cumulative percentage of isolates inhibited at MIC ([2]; MIC 0.015 μg/mL): 20.0%
Number of test isolates at MIC ([2]; MIC 0.015 μg/mL): 2
Cumulative percentage of isolates inhibited at MIC ([2]; MIC 0.03 μg/mL): 33.3%
Number of test isolates at MIC ([2]; MIC 0.03 μg/mL): 2
Cumulative percentage of isolates inhibited at MIC ([2]; MIC 0.06 μg/mL): 66.7%
Number of test isolates at MIC ([2]; MIC 0.06 μg/mL): 5
Cumulative percentage of isolates inhibited at MIC ([2]; MIC 0.5 μg/mL): 93.3%
Number of test isolates at MIC ([2]; MIC 0.5 μg/mL): 1
Cumulative percentage of isolates inhibited at MIC ([2]; MIC 1 μg/mL): 100.0%
Number of test isolates at MIC ([2]; MIC 1 μg/mL): 1
Mode (Enterococcus faecalis): >64 µg/mL
MIC50 (Enterococcus faecalis; Enterococcus faecalis, read-out: MIC50): > 64 µg/mL
MIC90 (Enterococcus faecalis; Enterococcus faecalis, read-out: MIC90): > 64 µg/mL
MIC50 (Enterococcus faecalis; listed as CTR): >64 µg/mL
MIC90 (Enterococcus faecalis; listed as CTR): >64 µg/mL
Mode (Staphylococcus aureus): >64 µg/mL
MIC50 (Staphylococcus aureus; Staphylococcus aureus, read-out: MIC50): 32 µg/mL (≈ 57.7 µM)
MIC90 (Staphylococcus aureus; Staphylococcus aureus, read-out: MIC90): > 64 µg/mL
MIC90 (Staphylococcus aureus; listed as CTR): >64 µg/mL
isolates susceptible (Streptococcus spp.): 100%
MIC50 (Streptococcus spp.; [4]): 0.03 µg/mL (≈ 0.0541 µM)
MIC90 (Streptococcus spp.; [4]): 0.12 µg/mL (≈ 0.216 µM)
MIC range (Streptococcus spp.; [4]): 8 to 1000 ng/mL
% S (Streptococcus spp.; 54 Streptococcus spp. clinical isolates, MXF by FDA breakpoints): 100%
MIC50 (Streptococcus spp.; Streptococcus, read-out: MIC50): 0.03 µg/mL (≈ 0.0541 µM)
MIC90 (Streptococcus spp.; Streptococcus, read-out: MIC90): 0.12 µg/mL (≈ 0.216 µM)
Mode (Streptococcus spp.; modal MIC, 54 Streptococcus spp. clinical isolates): 0.06 µg/mL
% S (Streptococcus pyogenes): 100%
MIC range (Streptococcus pyogenes): 0.015 to 0.06 µg/mL
Mode (Streptococcus pyogenes): 0.015 µg/mL
MIC50 (Streptococcus pyogenes; Streptococcus pyogenes, read-out: MIC50): 0.015 µg/mL (≈ 0.027 µM)
MIC90 (Streptococcus pyogenes; Streptococcus pyogenes, read-out: MIC90): 0.03 µg/mL (≈ 0.0541 µM)
MIC50 (Streptococcus agalactiae; read-out: MIC50): 0.06 µg/mL (≈ 0.108 µM)
MIC90 (Streptococcus agalactiae; read-out: MIC90): 0.06 µg/mL (≈ 0.108 µM)
MIC50 [3, 5]: 0.06 µg/mL (≈ 0.108 µM)
MIC90 [3, 5]: 0.5 µg/mL (≈ 0.902 µM)
MIC range [3, 5]: 8 to 1000 ng/mL
% S ([3]; 15 Viridans group Streptococci clinical isolates, MXF by FDA breakpoints): 100%
MIC50 ([3]; Streptococcus, read-out: MIC50): 0.06 µg/mL (≈ 0.108 µM)
MIC90 ([3]; Streptococcus, read-out: MIC90): 0.5 µg/mL (≈ 0.902 µM)
Mode ([3]; modal MIC, 15 Viridans group Streptococci clinical isolates): 0.06 µg/mL
